# ChEMBL document CHEMBL1201862, “PubChem BioAssay data set” (2004)
# The source made the active and inactive calls.
# Tests used:
# Estrogen receptor = molecular target: T1, Estrogen receptor (Homo sapiens, UniProt P03372);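 further: potency for inhibiting coactivator peptide recruitment to the receptor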
# T1 sequence (P03372 whole entry): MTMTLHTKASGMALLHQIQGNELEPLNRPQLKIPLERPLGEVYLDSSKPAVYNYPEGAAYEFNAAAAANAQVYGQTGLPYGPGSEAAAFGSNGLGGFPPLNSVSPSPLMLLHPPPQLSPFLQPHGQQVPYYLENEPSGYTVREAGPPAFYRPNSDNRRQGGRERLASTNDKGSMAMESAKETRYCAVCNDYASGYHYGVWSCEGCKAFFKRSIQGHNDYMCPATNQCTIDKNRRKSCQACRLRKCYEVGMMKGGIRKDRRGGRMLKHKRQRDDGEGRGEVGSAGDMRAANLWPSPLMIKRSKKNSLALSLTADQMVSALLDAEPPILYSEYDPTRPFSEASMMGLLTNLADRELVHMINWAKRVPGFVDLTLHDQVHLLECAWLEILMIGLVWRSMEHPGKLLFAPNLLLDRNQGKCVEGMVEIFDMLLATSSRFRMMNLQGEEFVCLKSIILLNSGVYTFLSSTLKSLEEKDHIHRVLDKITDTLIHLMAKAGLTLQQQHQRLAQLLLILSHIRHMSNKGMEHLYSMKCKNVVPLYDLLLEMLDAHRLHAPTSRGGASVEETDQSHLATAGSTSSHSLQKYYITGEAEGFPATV
# [1] = molecular target: Eukaryotic translation initiation factor 4E (Mus musculus, UniProt P63073); test: blockers of eIF4G binding by eIF4E – biochemical, TR-FRET, dose response (AID 855); type: functional;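 further: potency for disrupting eIF4E binding to eIF4GI seen as loss of FRET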
# Sequence of Eukaryotic translation initiation factor 4E (P63073 whole entry): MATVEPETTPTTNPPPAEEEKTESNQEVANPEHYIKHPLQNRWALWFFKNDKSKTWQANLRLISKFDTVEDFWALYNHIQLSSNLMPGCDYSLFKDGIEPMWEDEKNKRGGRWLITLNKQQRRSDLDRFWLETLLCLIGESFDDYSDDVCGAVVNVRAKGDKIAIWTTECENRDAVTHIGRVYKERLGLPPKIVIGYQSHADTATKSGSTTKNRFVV
# H4 = test: Luminescence Cell-Based Dose Response HTS to Identify Activators of 5'UTR Stem-Loop Driven Prion Protein mRNA Translation in H4 Neuroglioblastoma Cells. [Related pubchem assays: 1829 (Project Summary), 1814 (Primary HTS)]; type: functional; details: Homo sapiens
# [2] = molecular target: T2, Rac GTPase-activating protein 1 (Homo sapiens, UniProt Q9H0H5); test: blockers of MgcRacGAP-driven Rac1 GTP hydrolysis – biochemical, ADP Hunter fluorescence, primary and confirmatory, confirmation (AID 624330); type: functional
# T2 sequence (Q9H0H5 whole entry): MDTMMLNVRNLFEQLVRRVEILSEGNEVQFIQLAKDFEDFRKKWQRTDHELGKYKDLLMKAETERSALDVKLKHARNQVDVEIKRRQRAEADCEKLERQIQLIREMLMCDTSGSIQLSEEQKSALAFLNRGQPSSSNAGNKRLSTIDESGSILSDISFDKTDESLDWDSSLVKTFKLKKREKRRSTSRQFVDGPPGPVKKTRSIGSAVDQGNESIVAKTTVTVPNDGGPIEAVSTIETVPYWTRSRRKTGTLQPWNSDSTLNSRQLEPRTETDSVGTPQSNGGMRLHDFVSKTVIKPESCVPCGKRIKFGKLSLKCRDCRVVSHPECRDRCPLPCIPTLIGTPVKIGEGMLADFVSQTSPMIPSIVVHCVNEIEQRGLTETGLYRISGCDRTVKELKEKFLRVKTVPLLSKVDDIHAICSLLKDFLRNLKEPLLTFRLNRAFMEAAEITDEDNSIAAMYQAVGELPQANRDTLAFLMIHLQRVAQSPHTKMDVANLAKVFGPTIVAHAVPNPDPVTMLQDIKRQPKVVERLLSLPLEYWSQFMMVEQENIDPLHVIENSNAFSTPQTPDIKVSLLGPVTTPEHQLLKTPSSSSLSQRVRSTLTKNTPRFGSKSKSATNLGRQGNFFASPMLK
# [3] = Luminescence Cell-Based Dose Response HTS to Identify Activators of Luciferase Translation or Activity in H4 […] Cells. [Related pubchem assays: 1829 (Project Summary), 1814 (Primary HTS)]; type: functional
# [4] = Luminescence Cell-Based Dose Confirmation HTS to Identify Activators of 5'UTR Stem-Loop Driven Alpha-Synuclein mRNA Translation in H4 Neuroglioblastoma Cells. [Related pubchem assays: 1829 (Project Summary), 1814 (Primary HTS)]; type: functional
# Cytochrome P450 3A4 = Cytochrome P450 3A4 (Homo sapiens, UniProt P08684); details: Potency;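 further: confirmatory qHTS run detecting inhibitors and substrates of CYP3A4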
# Sequence of Cytochrome P450 3A4 (P08684 whole entry): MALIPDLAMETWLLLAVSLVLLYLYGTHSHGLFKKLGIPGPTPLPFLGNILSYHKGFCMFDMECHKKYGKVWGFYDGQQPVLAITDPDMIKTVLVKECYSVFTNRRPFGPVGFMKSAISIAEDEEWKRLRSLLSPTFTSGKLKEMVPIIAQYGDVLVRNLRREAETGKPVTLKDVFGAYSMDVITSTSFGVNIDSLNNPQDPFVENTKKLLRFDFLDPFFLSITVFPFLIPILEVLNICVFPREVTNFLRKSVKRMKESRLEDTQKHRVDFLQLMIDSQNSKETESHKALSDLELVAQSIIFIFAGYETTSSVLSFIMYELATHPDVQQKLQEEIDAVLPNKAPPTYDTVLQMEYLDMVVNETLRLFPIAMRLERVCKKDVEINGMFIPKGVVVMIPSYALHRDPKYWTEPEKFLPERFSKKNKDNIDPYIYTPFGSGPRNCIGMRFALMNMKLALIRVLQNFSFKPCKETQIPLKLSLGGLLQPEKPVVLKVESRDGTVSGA
# Streptococcus = test: GAS UMAA2166 growth inhibition – luminescence, BacTiterGlo, counter-screen for streptokinase expression inhibitor project, dose response (AID 1915); type: functional, organism-based;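 further: potency for reduction of bacterial viability or growth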
# [5] = molecular target: T3, Long-chain-fatty-acid--AMP ligase FadD28 (Mycobacterium tuberculosis, UniProt P9WQ59); test: Fluorescence polarization aasay to screen for inhibitors that compete for the binding of FadD28 to a bisubstrate Measured in Biochemical System Using Plate Reader - 2147-01_Inhibitor_Dose_CherryPick_Activity.; type: functional, Mycobacterium tuberculosis H37Rv
# T3 sequence (P9WQ59 whole entry): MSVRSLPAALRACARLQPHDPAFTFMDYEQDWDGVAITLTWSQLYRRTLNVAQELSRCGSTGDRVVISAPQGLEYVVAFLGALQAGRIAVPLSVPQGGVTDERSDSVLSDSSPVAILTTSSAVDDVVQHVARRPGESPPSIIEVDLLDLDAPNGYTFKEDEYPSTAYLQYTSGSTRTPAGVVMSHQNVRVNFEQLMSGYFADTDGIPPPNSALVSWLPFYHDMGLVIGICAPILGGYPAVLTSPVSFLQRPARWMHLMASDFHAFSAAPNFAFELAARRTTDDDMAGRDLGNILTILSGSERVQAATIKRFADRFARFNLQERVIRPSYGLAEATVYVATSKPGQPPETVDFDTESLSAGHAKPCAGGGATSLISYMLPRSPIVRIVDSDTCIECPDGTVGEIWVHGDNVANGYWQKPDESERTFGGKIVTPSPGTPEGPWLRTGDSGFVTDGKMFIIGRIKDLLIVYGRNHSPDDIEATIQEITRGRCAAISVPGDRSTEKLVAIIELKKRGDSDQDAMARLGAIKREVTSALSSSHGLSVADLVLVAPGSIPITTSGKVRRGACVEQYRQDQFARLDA
# [6] = system: Streptococcus sp. 'group A'; test: Streptococcus pyogenes SK(-)GAS viability under kanamycin – luminescence, BacTiterGlo, confirmation, counter-screen for streptokinase expression inhibitor project, dose response (AID 1900); type: functional, organism-based
# [7] = Luminescence Cell-Based Dose Retest to Confirm Inhibitors of Cancer Stem Cells. [Related pubchem assays (depositor defined):AID2717, AID2721]; type: functional; details: Homo sapiens
# Streptokinase A = molecular target: T4, Streptokinase A (Streptococcus pyogenes serotype M1, UniProt P10520); test: viability-normalized secreted streptokinase activity reduction – plasminogen activation absorbance, OD405, dose response (AID 1914); type: functional, Streptococcus pyogenes M1 GAS;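 further: secreted streptokinase activity via plasminogen activation per viability signal from cell pellet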
# T4 sequence (P10520 whole entry): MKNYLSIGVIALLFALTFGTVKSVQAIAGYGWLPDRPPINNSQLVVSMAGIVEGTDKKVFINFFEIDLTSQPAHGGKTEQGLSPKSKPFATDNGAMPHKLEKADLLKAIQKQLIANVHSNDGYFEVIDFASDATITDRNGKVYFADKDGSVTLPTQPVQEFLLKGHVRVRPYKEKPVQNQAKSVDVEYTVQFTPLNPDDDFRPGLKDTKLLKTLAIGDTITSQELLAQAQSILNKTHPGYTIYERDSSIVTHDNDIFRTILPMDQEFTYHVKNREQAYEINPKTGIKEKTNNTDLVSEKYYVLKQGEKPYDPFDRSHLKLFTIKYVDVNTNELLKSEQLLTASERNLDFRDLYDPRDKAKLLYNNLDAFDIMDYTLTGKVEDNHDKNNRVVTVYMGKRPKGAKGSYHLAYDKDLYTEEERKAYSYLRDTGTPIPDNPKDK
# Genome polyprotein = Genome polyprotein (dengue virus type 2, UniProt P29990); test: flavivirus cap methylation enzyme inhibition – biochemical, confirmation dose response, primary screen (AID 588689); type: functional
# Sequence of Genome polyprotein (P29990 2492-3391 limits assumed): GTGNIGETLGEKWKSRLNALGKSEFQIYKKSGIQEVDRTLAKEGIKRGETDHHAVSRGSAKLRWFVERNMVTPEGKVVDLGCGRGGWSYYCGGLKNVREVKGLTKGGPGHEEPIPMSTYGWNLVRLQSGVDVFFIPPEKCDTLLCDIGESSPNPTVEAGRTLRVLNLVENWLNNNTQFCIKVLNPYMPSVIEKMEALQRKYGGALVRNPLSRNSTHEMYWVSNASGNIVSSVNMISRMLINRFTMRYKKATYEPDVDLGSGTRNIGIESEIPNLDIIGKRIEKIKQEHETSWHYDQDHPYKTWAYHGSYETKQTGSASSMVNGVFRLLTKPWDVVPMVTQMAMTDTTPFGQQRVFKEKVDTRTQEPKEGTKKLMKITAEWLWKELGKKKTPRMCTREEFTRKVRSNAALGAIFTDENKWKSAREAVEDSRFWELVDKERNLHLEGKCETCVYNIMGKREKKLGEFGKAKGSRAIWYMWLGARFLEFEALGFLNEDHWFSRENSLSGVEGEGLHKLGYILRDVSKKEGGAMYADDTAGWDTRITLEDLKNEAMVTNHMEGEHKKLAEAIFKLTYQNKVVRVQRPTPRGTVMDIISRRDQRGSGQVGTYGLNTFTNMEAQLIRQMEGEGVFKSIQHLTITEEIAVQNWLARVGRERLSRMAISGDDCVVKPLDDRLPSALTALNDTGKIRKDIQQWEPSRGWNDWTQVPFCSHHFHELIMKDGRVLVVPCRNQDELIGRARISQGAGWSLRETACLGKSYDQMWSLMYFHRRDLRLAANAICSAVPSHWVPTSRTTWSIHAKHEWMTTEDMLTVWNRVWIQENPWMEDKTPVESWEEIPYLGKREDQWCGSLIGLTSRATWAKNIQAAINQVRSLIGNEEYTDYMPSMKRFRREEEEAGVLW
# [8] = molecular target: T5, Calpain-2 catalytic subunit (Sus scrofa, UniProt P43367); test: m-calpain protease blockers, concentration series – biochemical, fluorogenic peptide substrate, dose response (AID 1420); type: functional
# T5 sequence (P43367 whole entry): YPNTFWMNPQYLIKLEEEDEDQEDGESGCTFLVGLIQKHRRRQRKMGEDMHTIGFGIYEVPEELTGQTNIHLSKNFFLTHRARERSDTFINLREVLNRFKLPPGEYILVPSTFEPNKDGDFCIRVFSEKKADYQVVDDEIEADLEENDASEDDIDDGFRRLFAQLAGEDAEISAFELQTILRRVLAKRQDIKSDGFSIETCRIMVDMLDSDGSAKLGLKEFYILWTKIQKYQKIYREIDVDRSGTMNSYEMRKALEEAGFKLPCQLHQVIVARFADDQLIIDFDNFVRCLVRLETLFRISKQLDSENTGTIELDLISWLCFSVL
# [9] = viability of uninfected HEp-2 cells – cell-based, HTS, cytotoxicity control for RSV inhibitor project, dose response (AID 2410); type: functional; details: human respiratory syncytial virus
# [10] = molecular target: Alkaline phosphatase, placental type (Homo sapiens, UniProt P05187); test: human placental alkaline phosphatase inhibition – biochemical, luminescence, confirmation (AID 1512); type: functional
# Sequence of Alkaline phosphatase, placental type (P05187 whole entry): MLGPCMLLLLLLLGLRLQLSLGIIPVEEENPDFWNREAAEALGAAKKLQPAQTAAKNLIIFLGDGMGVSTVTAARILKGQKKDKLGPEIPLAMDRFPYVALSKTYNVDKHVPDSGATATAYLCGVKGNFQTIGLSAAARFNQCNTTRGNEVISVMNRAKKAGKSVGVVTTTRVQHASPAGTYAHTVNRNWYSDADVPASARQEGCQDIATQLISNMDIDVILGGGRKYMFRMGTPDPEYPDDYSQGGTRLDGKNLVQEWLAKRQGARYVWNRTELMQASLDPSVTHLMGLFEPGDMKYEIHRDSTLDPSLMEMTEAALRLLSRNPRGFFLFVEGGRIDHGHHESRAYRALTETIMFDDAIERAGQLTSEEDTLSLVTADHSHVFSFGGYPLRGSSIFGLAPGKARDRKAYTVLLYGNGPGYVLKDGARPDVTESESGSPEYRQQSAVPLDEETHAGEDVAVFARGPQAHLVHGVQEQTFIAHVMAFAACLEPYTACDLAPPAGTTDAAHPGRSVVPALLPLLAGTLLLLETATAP
# [11] = microbe, parasite or virus in culture; type: functional; details: Mycobacterium tuberculosis
# Cytochrome P450 2C9 = Cytochrome P450 2C9 (Homo sapiens, UniProt P11712)
# Sequence of Cytochrome P450 2C9 (P11712 whole entry): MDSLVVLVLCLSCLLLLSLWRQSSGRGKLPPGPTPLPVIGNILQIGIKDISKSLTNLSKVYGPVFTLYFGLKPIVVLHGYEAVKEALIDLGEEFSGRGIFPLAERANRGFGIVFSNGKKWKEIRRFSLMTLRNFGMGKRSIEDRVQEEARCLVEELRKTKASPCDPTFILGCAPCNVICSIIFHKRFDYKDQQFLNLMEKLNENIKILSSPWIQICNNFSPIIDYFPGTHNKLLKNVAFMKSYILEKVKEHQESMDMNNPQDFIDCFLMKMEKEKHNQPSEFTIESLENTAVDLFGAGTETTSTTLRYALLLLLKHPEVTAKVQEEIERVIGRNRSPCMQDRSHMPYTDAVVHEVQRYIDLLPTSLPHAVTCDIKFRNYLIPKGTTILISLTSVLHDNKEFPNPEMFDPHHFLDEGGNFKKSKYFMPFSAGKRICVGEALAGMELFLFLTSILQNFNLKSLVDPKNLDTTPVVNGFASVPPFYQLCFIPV
compound,measurement,setting,value
COC(=O)COc1ccc(S(=O)(=O)Nc2ccc3c(c2)OCO3)cc1,IC50,Estrogen receptor,> 50 µM (not active)
same,IC50,[1],> 64 µM (inactive)
O=C(CNC(=O)c1ccco1)N=Nc1c(O)[nH]c2ccc([N+](=O)[O-])cc12,IC50,cells,20.6 µM (active)
CCc1ccc(C(=O)NNC(=O)OC)cc1,IC50,[1],50 µM (inactive)
O=C1c2cccnc2C(Nc2ccccc2)N1Cc1ccco1 (configuration not stated),IC50,cells,15.1 µM (active)
CN(C)c1ccc2c(c1)N=C(c1ccco1)OP2(=S)N1CCOCC1 (configuration not stated),EC50,H4,49.6 µM (active)
same,IC50,[2],179 µM (active)
same,EC50,[3],17.9 µM (active)
same,EC50,[4],15.7 µM (active)
same,IC50,[1],> 64 µM (inactive)
COC(=O)C1(C)C=CC2(CCCCC2)N1C(=O)c1ccccc1 (configuration not stated),AC50,Cytochrome P450 3A4,20 µM (inconclusive)
Cc1ccc(F)c(NC(=O)/C(C#N)=C(\O)c2ccc(C(C)(C)C)cc2)c1,EC50,Streptococcus,> 150 µM (not active)
same,AC50,[5],> 100 µM (inactive)
same,EC50,[6],16.7 µM (active)
same,AC50,[7],1.96 µM (active)
same,EC50,Streptokinase A,> 150 µM (not active)
same,IC50,Genome polyprotein,32.6 µM (active)
Cc1ccccc1NC(=O)COC(=O)CCc1ccccc1,IC50,[8],20.8 µM (not active)
O=S(=O)(c1ccccc1Cl)N1CCCC(c2nc(O)c3nnn(Cc4ccc5c(c4)OCCO5)c3n2)C1 (configuration not stated),IC50,cells,10.1 µM (active)
same,CC50,[9],16.6 µM (active)
CCc1c(C(=O)NNC(=S)NCC2CCCO2)csc1C (configuration not stated),IC50,[10],> 100 µM (inactive)
CC1=C(C(=O)OCC(C)C)C23C(=O)c4ccccc4C2(O1)OC(N)=C3C#N (configuration not stated),IC50,[8],> 50 µM (not active)
COc1cc(NC2c3ncccc3C(=O)N2Cc2ccco2)cc(OC)c1OC (configuration not stated),IC50,cells,30.1 µM (active)
CN1c2ccccc2C(C)(C)C12CC(c1cccc(S(=O)(=O)N3CCCC3)c1)=NO2 (configuration not stated),IC50,cells,18.3 µM (active)
same,CC50,[9],17.7 µM (active)
CC(C)CNS(=O)(=O)c1ccc(CCC(=O)Nc2cc(Cl)ccc2Oc2ccccc2)cc1,IC50,[8],5.08 µM (not active)
Cc1nn(Cc2cccc(C(=O)NC(C)c3ccc(C(C)(C)C)cc3)c2)c(C)c1[N+](=O)[O-] (configuration not stated),IC50,[8],6.98 µM (not active)
CC(=O)Nc1ccc(S(=O)(=O)Nc2cccc3[nH]ncc23)cc1,IC50,[8],> 50 µM (not active)
CN1C(=O)/C(=C/c2ccccc2Cl)Sc2ccc(C(=O)NCc3cccnc3)cc21,EC50,Streptococcus,16.1 µM (active)
same,EC50,[6],4.4 µM (active)
same,IC50,[8],5.27 µM (not active)
same,EC50,Streptokinase A,> 150 µM (not active)
same,CC50,[11],> 40 µM (active)
COC1(C#CC2C=CC(OC(C)=O)C(COC(C)=O)O2)CCCCC1 (configuration not stated),AC50,Cytochrome P450 3A4,3.98 µM (inconclusive)
CCNC(=S)NNC(=O)c1cc(C2CC2)nc2ccccc12,IC50,[10],> 100 µM (inactive)
Cc1cccc(-n2c(=O)c3c4c(sc3n3c(=S)[nH]nc23)CCC4)c1,IC50,[1],50 µM (inactive)
COc1cccc(NC(=O)COc2ccc(N3CC(C(=O)NCC(C)C)CC3=O)cc2)c1 (configuration not stated),IC50,[1],> 64 µM (inactive)
C/C(N)=C(/C#N)C(=O)COC(=O)CNS(=O)(=O)c1ccc2ccccc2c1,IC50,cells,11.8 µM (active)
CN(CCOc1ccc(C[C@H](Nc2ccccc2C(=O)c2ccccc2)C(=O)O)cc1)c1ccccn1,AC50,Cytochrome P450 3A4,3.16 µM (inconclusive)
same,AC50,Cytochrome P450 2C9,31.6 µM (inconclusive)
COc1cc(O)c2c(=O)c(O)c(-c3ccc(O)c(O)c3)oc2c1 [RHAMNETIN],AC50,Cytochrome P450 3A4,39.8 µM (inconclusive)
C=CCc1ccc2c(c1)OCO2 [SAFROLE],AC50,Cytochrome P450 3A4,3.16 µM (inconclusive)
